Assay results reported in US20230303569A1, “HETEROCYCLIC COMPOUNDS AS THERAPEUTIC AGENTS” (Arisan Therapeutics Inc., priority 2021, published 2023).
Where two headings read alike, the source gives them in different places.

How the values were obtained:
Type in all cases: cell-based
human Nav1.8 = target: T1, human Nav1.8 (Homo sapiens, UniProt Q9Y5Y9); experiment: Two pulse assay protocol, Nav1.8; settings: peak current
T1 construct: host or cells: HEK293
Method: (§1) In vitro Na+ Current Inhibition Assays were performed by Eurofins Discovery (St Charles, MO). All compound functional activity determinations were determined through electrophysiological analyses of Na+ currents in HEK293 cells expressing a stably transfected Na+ channel (human Nav1.1, 1.2, 1.3, 1.5, 1.6, 1.7, or 1.8). After harvesting with Accutase cells are maintained in serum free medium at room temperature prior to electrophysiological recording utilizing the QPatch HT automated whole-cell patch-clamp platform (Sophion Bioscience, Woburn MA). Stock solution aliquots of the test compound are prepared in DMSO at 300× the final assay concentrations, and stored at −20° C. until the day of assay. On the day of the assay, an aliquot of the stock solution is thawed and diluted into external solution (137 mM NaCl, 4 mM KCl, 1 mM MgCl2, 1.8 mM CaCl2, 10 mM HEPES, 10 mM Glucose (pH 7.3, titrated with 10M NaOH) to make final test concentrations. A final concentration of 0.33% DMSO is maintained for each concentration of the assay compounds. Internal solution for recordings of Na+ consist consists of 100 mM CsF, 45 mM CsCl, 5 mM NaCl, 10 mM HEPES, 5 mM EGTA (pH 7.3, titrated with 1M CsOH).
(§2) Two pulse assay protocol for human Nav1.1, 1.2, 1.3, 1.5, 1.6, 1.7, and 1.8 channels. Mammalian cultured cells expressing the indicated human Nav1.1, 1.2, 1.3, 1.5, 1.6, 1.7 or 1.8 channels were assayed using the The QPatch HT (Sophion Bioscience, Woburn MA) automated system with an intracellular solution (mM) of 100 CsF, 45 CsCl, 5 NaCl, 10 HEPES, 5 EGTA (pH 7.3, titrated with 1M CsOH) and extracellular solution (mM) of 137 NaCl, 4 KCl, 1 MgCl2, 1.8 CaCl2, 10 HEPES, 10 Glucose (pH 7.3, titrated with 10M NaOH). Onset and steady state block of the sodium channel was measured using a pulse pattern, repeated every 20 seconds (s) from a holding potential of −120 mV for 100 ms, and then pulsed to 0 mV for 500 ms to inactivate the Na channels and facilitate inactivated state-dependent binding of the test compounds. The cell membranes were then stepped back to −120 mV for 10 ms to recover from inactivation into resting or closed state (channels with test compound bound to them will not recover from inactivation and will not open) before stepping to 0 mV for 50 ms (pulse 2) to measure Na channels that are available to open. Peak current was measured during the step to 0 mV at pulse 1 and 2 to measure tonic and state-dependent inhibition. Compound activities were assessed by dividing post current amplitude (at the end of each five (5) minute compound application) by the vehicle control amplitude and the mean calculated for each compound concentration. Tetracaine was used as a positive control and was tested concurrently with the test compounds. Current amplitudes in excess of 200 pA at the control stage were analyzed. The amplitude of the current was calculated by measuring the difference between the peak inward current on stepping to 0 mV (i.e. peak of the current) and remaining current at the end of the step. The current was assessed in vehicle control conditions and then at the end of each five (5) minute compound application.

human Nav1.6 = target: T2, human Nav1.6 (Homo sapiens, UniProt Q9UQD0); experiment: Two pulse assay protocol, Nav1.6; settings: 5 uM, peak current
T2 construct: host or cells: HEK293
T2 sequence (Q9UQD0 whole entry): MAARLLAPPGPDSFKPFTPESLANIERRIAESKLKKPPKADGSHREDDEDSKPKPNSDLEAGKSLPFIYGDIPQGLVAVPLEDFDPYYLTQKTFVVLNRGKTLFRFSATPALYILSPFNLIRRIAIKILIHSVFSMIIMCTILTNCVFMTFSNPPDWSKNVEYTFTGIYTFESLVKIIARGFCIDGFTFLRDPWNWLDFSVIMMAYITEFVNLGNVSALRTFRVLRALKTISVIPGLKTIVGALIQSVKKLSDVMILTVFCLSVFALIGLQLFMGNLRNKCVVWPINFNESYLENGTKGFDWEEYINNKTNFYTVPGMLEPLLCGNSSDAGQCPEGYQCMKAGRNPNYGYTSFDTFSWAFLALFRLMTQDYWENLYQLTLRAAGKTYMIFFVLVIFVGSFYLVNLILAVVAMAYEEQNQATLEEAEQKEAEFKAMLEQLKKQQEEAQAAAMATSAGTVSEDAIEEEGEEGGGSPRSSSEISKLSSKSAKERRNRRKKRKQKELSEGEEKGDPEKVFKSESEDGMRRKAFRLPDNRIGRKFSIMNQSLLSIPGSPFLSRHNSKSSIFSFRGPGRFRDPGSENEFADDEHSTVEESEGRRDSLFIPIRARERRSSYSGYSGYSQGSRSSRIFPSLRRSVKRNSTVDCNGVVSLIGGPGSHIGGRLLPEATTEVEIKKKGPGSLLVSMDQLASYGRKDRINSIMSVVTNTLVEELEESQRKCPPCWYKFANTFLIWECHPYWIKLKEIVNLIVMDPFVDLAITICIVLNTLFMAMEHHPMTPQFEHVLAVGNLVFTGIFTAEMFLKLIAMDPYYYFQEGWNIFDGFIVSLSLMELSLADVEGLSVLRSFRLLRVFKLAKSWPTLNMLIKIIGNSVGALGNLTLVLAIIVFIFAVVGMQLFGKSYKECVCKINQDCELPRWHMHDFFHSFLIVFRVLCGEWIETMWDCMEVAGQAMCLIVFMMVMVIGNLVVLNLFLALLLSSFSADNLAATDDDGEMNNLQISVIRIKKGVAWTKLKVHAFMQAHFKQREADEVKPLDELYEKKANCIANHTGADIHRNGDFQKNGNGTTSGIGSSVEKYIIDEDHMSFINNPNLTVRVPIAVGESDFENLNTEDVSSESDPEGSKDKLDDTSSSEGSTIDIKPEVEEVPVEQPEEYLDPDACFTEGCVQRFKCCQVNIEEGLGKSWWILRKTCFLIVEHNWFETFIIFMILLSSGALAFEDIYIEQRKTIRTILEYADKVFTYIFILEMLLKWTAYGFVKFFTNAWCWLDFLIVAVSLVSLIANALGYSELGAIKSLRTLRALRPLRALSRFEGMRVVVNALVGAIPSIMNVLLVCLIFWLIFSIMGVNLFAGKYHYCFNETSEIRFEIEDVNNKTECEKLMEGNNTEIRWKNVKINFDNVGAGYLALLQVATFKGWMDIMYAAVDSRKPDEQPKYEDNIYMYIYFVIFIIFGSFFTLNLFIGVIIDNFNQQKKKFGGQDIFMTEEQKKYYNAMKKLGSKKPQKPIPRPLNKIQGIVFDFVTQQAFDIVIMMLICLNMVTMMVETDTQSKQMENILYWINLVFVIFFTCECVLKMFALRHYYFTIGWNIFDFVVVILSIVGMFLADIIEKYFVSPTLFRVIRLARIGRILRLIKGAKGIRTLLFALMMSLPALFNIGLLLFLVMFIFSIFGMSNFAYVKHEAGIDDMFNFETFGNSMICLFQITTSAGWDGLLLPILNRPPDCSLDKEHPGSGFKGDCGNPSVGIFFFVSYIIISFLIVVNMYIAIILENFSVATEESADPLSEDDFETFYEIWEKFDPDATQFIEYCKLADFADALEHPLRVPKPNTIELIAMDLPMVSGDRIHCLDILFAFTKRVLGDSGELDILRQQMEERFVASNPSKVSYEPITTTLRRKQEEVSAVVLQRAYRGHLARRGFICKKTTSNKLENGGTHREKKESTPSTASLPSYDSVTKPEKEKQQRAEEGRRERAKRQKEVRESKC
Method: as §1, §2

human Nav1.7 = target: T3, human Nav1.7 (Homo sapiens, UniProt Q15858); experiment: Two pulse assay protocol, Nav1.7; settings: peak current
T3 construct: host or cells: HEK293
T3 sequence (Q15858 whole entry): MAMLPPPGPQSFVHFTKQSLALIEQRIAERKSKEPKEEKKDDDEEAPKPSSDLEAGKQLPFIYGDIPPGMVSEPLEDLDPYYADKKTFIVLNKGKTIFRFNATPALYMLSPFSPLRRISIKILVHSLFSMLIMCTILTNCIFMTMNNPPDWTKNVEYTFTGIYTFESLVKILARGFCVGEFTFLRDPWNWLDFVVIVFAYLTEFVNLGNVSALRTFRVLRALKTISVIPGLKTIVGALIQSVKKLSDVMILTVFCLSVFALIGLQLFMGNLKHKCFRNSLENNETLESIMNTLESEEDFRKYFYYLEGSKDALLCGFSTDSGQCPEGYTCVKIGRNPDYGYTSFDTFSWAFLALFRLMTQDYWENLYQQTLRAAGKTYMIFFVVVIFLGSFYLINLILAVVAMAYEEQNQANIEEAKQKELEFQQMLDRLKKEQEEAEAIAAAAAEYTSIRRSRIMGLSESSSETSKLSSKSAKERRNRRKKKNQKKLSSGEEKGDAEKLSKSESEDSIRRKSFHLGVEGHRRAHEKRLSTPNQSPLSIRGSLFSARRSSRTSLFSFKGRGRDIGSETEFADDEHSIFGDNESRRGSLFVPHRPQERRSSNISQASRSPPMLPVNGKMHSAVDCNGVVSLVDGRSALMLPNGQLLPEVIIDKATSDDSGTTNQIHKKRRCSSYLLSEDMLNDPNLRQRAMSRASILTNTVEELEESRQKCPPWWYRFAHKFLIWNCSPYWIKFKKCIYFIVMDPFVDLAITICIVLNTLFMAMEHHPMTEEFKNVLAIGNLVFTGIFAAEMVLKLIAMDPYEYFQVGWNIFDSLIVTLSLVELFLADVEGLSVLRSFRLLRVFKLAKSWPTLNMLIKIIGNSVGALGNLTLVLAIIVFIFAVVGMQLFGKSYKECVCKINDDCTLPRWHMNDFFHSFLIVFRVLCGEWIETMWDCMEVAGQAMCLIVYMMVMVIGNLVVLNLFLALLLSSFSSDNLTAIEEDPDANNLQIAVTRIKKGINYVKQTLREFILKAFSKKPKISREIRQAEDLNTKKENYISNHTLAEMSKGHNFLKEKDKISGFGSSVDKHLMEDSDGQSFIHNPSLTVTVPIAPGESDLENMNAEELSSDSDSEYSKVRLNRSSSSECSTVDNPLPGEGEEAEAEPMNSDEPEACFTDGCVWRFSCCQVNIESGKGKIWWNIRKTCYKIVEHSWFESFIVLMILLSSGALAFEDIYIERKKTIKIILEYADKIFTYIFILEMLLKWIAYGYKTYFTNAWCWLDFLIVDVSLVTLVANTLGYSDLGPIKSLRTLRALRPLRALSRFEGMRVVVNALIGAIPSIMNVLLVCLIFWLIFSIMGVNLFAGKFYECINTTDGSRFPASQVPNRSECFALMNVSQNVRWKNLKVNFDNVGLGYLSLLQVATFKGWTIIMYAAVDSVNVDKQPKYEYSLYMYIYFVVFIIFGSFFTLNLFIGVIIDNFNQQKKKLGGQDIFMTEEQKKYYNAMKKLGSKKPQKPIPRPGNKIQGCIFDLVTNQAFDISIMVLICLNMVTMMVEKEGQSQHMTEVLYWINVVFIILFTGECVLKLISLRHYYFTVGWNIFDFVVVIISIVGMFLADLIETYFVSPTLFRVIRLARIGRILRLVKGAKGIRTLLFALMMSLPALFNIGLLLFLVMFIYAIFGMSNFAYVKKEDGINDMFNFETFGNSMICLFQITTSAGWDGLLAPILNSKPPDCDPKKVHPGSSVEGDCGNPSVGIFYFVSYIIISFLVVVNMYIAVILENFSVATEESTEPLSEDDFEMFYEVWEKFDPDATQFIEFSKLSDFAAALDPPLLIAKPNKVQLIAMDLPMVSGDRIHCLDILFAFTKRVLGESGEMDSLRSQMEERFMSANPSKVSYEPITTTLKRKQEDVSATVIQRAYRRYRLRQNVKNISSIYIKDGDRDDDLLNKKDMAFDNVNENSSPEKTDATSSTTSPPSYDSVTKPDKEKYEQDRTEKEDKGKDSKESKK
Method: as §1, §2

[1] = target: T4, human Nav1.5 (late current) (Homo sapiens, UniProt Q14524); experiment: Nav1.5 Late Current Assay (QPatch HT whole-cell patch clamp, 30 nM ATX-II); settings: HEK293 cells stably expressing human Nav1.5, pH 7.3, late current with 30 nM ATX-II, read-out: percent inhibition hNav1.5 Late (5 uM)
T4 construct: host or cells: HEK293
Method: as §1
Onset and steady state induction of late Nav1.5 current was measured using a pulse pattern, repeated every 5 sec, consisting of a hyperpolarizing pulse to −120 mV for a 200 ms duration, depolarization to −15 mV amplitude for a 40 ms duration, followed by step to 40 mV for 200 ms and finally a 100 ms ramp (1.2 V/s) to a holding potential of −80 mV. Each concentration of compound was applied for 5 minutes. The assay was performed at room temperature. After establishing vehicle control condition, all further addition of external solutions contain 30 nM ATX-II to activate late currents. Each concentration of compound was also co-applied with 30 nM ATXII to estimate the Nav1.5 late current inhibition. […]. ATXII was used as the agonist positive control and was tested concurrently with the test compound. Ranolazine was used as the positive control and was tested concurrently with the test compound.
Nav1.5 late current was measured as the total charge flowing through the Nav1.5 channels (area under the curve) 5 ms after the Nav1.5 peak current till the end of the test pulse and as charge at their maxima during the ramp. Individual cell results were normalized to their respective vehicle control and the results were averaged. The sodium current was assessed in 30 nM ATXII as vehicle control conditions and then at the end of each five (5) minute compound application in the presence of 30 nM ATXII. Individual cell result was normalized to 30 nM ATXII vehicle control amplitude and the mean±SEM calculated for each compound concentration.

[2] = target: T5, human Nav1.5 (peak current) (Homo sapiens, UniProt Q14524); experiment: Nav1.5 Peak Current Assay (QPatch HT whole-cell patch clamp); settings: HEK293 cells stably expressing human Nav1.5, pH 7.3, peak current at step to -15 mV, read-out: percent inhibition hNav1.5 Peak (5 uM)
T5 construct: host or cells: HEK293
Method: as §1
Onset and steady state block of peak Nav1.5 current was measured using a pulse pattern, repeated every 5 sec, consisting of a hyperpolarizing pulse to −120 mV for a 200 ms duration, depolarization to -15 mV amplitude for a 40 ms duration, followed by step to 40 mV for 200 ms and finally a 100 ms ramp (1.2 V/s) to a holding potential of −80 mV. Peak current was measured during the step to −15 mV.
Each concentration of compound was applied for 5 minutes. The assay was performed at room temperature and Tetracaine was used concurrently as a positive control. Only current amplitudes in excess of 200 pA at the control stage were analyzed. The amplitude of the sodium current was calculated by measuring the difference between the peak inward current on stepping to −15 mV (i.e. peak of the current) and the leak current. The sodium current was assessed in vehicle control conditions and then at the end of each five (5) minute compound application. Individual cell result was normalized to the vehicle control amplitude and the mean±SEM calculated for each compound concentration.

human Nav1.3 = target: T6, human Nav1.3 (Homo sapiens, UniProt Q9NY46); experiment: Two pulse assay protocol, Nav1.3; settings: peak current
T6 construct: host or cells: HEK293
Method: (§3) In vitro Na+ Current Inhibition Assays were performed by Eurofins Discovery (St Charles, MO). All compound functional activity determinations were determined through electrophysiological analyses of Na+ currents in HEK293 cells expressing a stably transfected Na+ channel (human Nav1.1, 1.2, 1.3, 1.5, 1.6, 1.7, or 1.8). After harvesting with Accutase cells are maintained in serum free medium at room temperature prior to electrophysiological recording utilizing the QPatch HT automated whole-cell patch-clamp platform (Sophion Bioscience, Woburn MA). […]
(§4) Two pulse assay protocol for human Nav1.1, 1.2, 1.3, 1.5, 1.6, 1.7, and 1.8 channels. […] Onset and steady state block of the sodium channel was measured using a pulse pattern, repeated every 20 seconds (s) from a holding potential of −120 mV for 100 ms, and then pulsed to 0 mV for 500 ms to inactivate the Na channels and facilitate inactivated state-dependent binding of the test compounds. […] Peak current was measured during the step to 0 mV at pulse 1 and 2 to measure tonic and state-dependent inhibition. Compound activities were assessed by dividing post current amplitude (at the end of each five (5) minute compound application) by the vehicle control amplitude and the mean calculated for each compound concentration. […] Current amplitudes in excess of 200 pA at the control stage were analyzed. […]

human Nav1.1 = target: T7, human Nav1.1 (Homo sapiens, UniProt P35498); experiment: Two pulse assay protocol, Nav1.1; settings: peak current
T7 construct: host or cells: HEK293
Method: as §3, §4

human Nav1.2 = target: T8, human Nav1.2 (Homo sapiens, UniProt Q99250); experiment: Two pulse assay protocol, Nav1.2; settings: peak current
T8 construct: host or cells: HEK293
Method: as §1, §2

[3] = target: T9, human Nav1.5 (pulse 2, state-dependent inhibition) (Homo sapiens, UniProt Q14524); experiment: Two pulse assay protocol, Nav1.5; settings: HEK293 cells stably expressing human Nav1.5, pH 7.3, peak current, pulse 2 (state-dependent), read-out: percent inhibition hNav1.5, Pulse 2 (5 uM)
T9 construct: host or cells: HEK293
Method: as §1, §2

[4] = target: T10, human Nav1.5 (pulse 1, tonic inhibition) (Homo sapiens, UniProt Q14524); experiment: Two pulse assay protocol, Nav1.5; settings: HEK293 cells stably expressing human Nav1.5, pH 7.3, peak current, pulse 1 (tonic), read-out: percent inhibition hNav1.5, Pulse 1 (5 uM)
T10 construct: host or cells: HEK293
Method: as §1, §2

[5] = pulse 1 (tonic), read-out: percent inhibition hNav1.8, Pulse 1 (5 uM)
[6] = pulse 2 (state-dependent), read-out: percent inhibition hNav1.8, Pulse 2 (5 uM)
[7] = pulse 1 (tonic), read-out: percent inhibition hNav1.6, Pulse 1 (5 uM)
[8] = pulse 2 (state-dependent), read-out: percent inhibition hNav1.6, Pulse 2 (5 uM)
[9] = pulse 1 (tonic), read-out: percent inhibition hNav1.7, Pulse 1 (5 uM)
[10] = pulse 2 (state-dependent), read-out: percent inhibition hNav1.7, Pulse 2 (5 uM)

inhibition at 5 µM (human Nav1.8; [5]) | inhibition at 5 µM (human Nav1.8; [6]) | inhibition at 5 µM (human Nav1.6; [7]) | inhibition at 5 µM (human Nav1.6; [8]) | inhibition at 5 µM (human Nav1.7; [9]) | inhibition at 5 µM (human Nav1.7; [10]) | inhibition at 5 µM (human Nav1.3; pulse 1 (tonic), read-out: percent inhibition hNav1.3, Pulse 1 (5 uM)) | inhibition at 5 µM (human Nav1.3; pulse 2 (state-dependent), read-out: percent inhibition hNav1.3, Pulse 2 (5 uM)) | inhibition at 5 µM (human Nav1.1; pulse 1 (tonic), read-out: percent inhibition hNav1.1, Pulse 1 (5 uM)) | inhibition at 5 µM (human Nav1.1; pulse 2 (state-dependent), read-out: percent inhibition hNav1.1, Pulse 2 (5 uM)) | inhibition at 5 µM (human Nav1.2; pulse 1 (tonic), read-out: percent inhibition hNav1.2, Pulse 1 (5 uM)) | inhibition at 5 µM (human Nav1.2; pulse 2 (state-dependent), read-out: percent inhibition hNav1.2, Pulse 2 (5 uM)) | SMILES | inhibition at 5 min, 5 uM [1] | inhibition at 5 min, 5 µM [2] | inhibition at 5 min, 5 µM [3] | inhibition at 5 min, 5 µM [4]
< 50% | 50 to 90% | < 50% | > 90% | < 50% | > 90% |  |  |  |  |  |  | CC(C)Oc1ccc(-c2ccc3ncc(-c4ccc(OC(C)C)nc4)n3c2)cc1 [Example C37, 2-(propan-2-yloxy)-5-{6-[4-(propan-2-yloxy)phenyl]imidazo[1,2-a]pyridin-3-yl}pyridine] | > 90% | < 50% |  | 
 |  | < 50% | > 90% | < 50% | > 90% | < 50% | > 90% | < 50% | > 90% | < 50% | > 90% | CC(C)Oc1ccc(-c2cnc3ccc(-c4ccc(OC(C)C)nc4)cn23)cc1 [Example C12, 2-(propan-2-yloxy)-5-{3-[4-(propan-2-yloxy)phenyl]imidazo[1,2-a]pyridin-6-yl}pyridine] | > 90% | 50 to 90% |  | 
< 50% | < 50% |  |  | < 50% | < 50% |  |  |  |  |  |  | CS(=O)(=O)NC(=O)c1ccn2c(-c3ccc(OC(F)(F)F)cc3)cnc2c1 [Example C66, N-(methylsulfonyl)-3-(4-(trifluoromethoxy)phenyl)imidazo[1,2-a]pyridine-7-carboxamide] |  |  | < 50% | < 50%

SMILES | inhibition at 5 µM (human Nav1.8; [5]) | inhibition at 5 µM (human Nav1.8; [6]) | inhibition at 5 µM (human Nav1.6; [7]) | inhibition at 5 µM (human Nav1.6; [8]) | inhibition at 5 µM (human Nav1.7; [9]) | inhibition at 5 µM (human Nav1.7; [10]) | inhibition at 5 µM (human Nav1.3; pulse 1 (tonic), read-out: percent inhibition hNav1.3, Pulse 1 (5 uM)) | inhibition at 5 µM (human Nav1.3; pulse 2 (state-dependent), read-out: percent inhibition hNav1.3, Pulse 2 (5 uM)) | inhibition at 5 µM (human Nav1.1; pulse 1 (tonic), read-out: percent inhibition hNav1.1, Pulse 1 (5 uM)) | inhibition at 5 µM (human Nav1.1; pulse 2 (state-dependent), read-out: percent inhibition hNav1.1, Pulse 2 (5 uM)) | inhibition at 5 µM (human Nav1.2; pulse 1 (tonic), read-out: percent inhibition hNav1.2, Pulse 1 (5 uM)) | inhibition at 5 µM (human Nav1.2; pulse 2 (state-dependent), read-out: percent inhibition hNav1.2, Pulse 2 (5 uM)) | inhibition at 5 min, 5 uM [1] | inhibition at 5 min, 5 µM [2] | inhibition at 5 min, 5 µM [3] | inhibition at 5 min, 5 µM [4]
Cc1cc2ncc(-c3ccc(OC(C)(C)C)cc3)n2cc1-c1ccc(OC(C)C)cc1 [Example C55, 3-(4-(tert-butoxy)phenyl)-6-(4-isopropoxyphenyl)-7-methylimidazo[1,2-a]pyridine] | < 50% | < 50% | < 50% | > 90% | < 50% | 50 to 90% |  |  |  |  |  |  | 50 to 90% | < 50% |  | 
